According to patent US20110003753A1, “COMPOSITIONS AND METHODS FOR DISRUPTING THE FUNCTION OF THE TRANSCRIPTIONAL REPRESSOR COMPONENT Sin3A-PAH2 DOMAIN TO INDUCE DIFFERENTIATION AND GROWTH INHIBITION IN BREAST CANCER” (SAMUEL WAXMAN CANCER RESEARCH FOUNDATION, priority 2009, published 2011):
Blank lines part the entries; values can stand above or below the compound they belong to.

Experiments:
[1] = tested on: MDA-MB-231 cells transfected with SID; experiment: Proliferation assay (MTT) for ERα and RAR activation; format: cell-based, human; settings: SID-transfected MDA-MB-231; for growth inhibition (MTT): daily for 48 hrs
Text: FIG. 5: A. Schematic representations of the promoters and 5′ untranslated regions (5′UTR) of CDH1 and ESR1 used in this study. Positions of CpG dinucleotides are indicated by grey ticks and the transcription initiation sites are represented by black arrows. The relative positions of primer pairs used to PCR amplify immunoprecipitated DNA from ChIP analysis and bisulfite-modified DNA are also indicated. B. H3K4me3 levels on the CDH1 and ESR1 promoter regions increase dramatically in response to SID. ChIP analysis was performed with chromatin from wild type or stably transfected MDA-MB-231 cells as indicated. Cross-linked protein-DNA complexes were immunoprecipitated with an anti-trimethyl H3K4 antibody and amplified by real-time PCR. Results are shown as percentage of input DNA. The RPL30 housekeeping gene is shown as a control. C. Real-time PCR analysis of CDH1 and ESR1 gene expression. Values are shown as molecules per μg total RNA and were derived from the ΔCt between the GAPDH housekeeping gene and the gene of interest. The amount of GAPDH molecules per μg total RNA was determined by absolute quantification. D. The CDH1 and ESR1 promoters undergo demethylation in response to SID. Following bisulfite modification of wild type or stably transfected MDA-MB-231 cells as indicated, specifically amplified PCR products were sequenced using primers corresponding to the promoter/5′UTR of ESR1. Positions of CpG dinucleotides are indicated by grey ticks and the transcription initiation sites are indicated by black arrows. […] Unmethylated CpGs are by represented open circles. CpG positions are shown relative to transcription initiation site. E. Functional assays for ERα and RAR activation. […]
For activation of RARs […] ATRA (all-trans-retinoic acid, pan-RAR agonist) or 100 nM Am580 (retinoibeozoic acid, RARα-specific agonist) was used daily for 48 hours. Cell proliferation was determined by MTT (Thiazolyl Blue Tetrazolium Bromide) colorimetric assay following standard protocols (Invitrogen). The optical density (OD) of reduced MTT was assessed at 570 nm versus 620/630 nm after 4 hr at 37° C. […]

[2] = target: GAL4 DBD-Sin3B (fusion of Sin3B with GAL4 DNA binding domain) (UniProt P04386); experiment: cell-based or functional assay
GAL4 DBD-Sin3B (fusion of Sin3B with GAL4 DNA binding domain), sequence (P04386 1-147): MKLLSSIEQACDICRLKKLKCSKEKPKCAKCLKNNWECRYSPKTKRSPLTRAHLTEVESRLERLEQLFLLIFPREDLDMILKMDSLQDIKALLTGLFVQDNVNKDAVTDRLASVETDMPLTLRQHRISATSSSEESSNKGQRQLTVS

[3] = tested on: Sin3B and MAD; experiment: Mammalian two-hybrid assay, GAL4 DBD-Sin3B and VP16AD-MAD in 293T cells; format: cell-based; settings: 15 μM peptide applied to the cell culture medium
Text: FIG. 2: SID decoy peptide blocks interactions between Sin3 PAH2 and MAD and interferes with recruitment of members of the Sin3 co-repressor complex. A. GST pull-down of MAD by the Sin3A PAH2 domain is blocked by SID peptide. Sin3A PAH2 domain (amino acids 306-450) was expressed in E. coli as a GST fusion and used in a pull down assay for in vitro interaction with 35S-methionine labeled MAD (left panel) or MAD immunoprecipitated from MDA-MB-231 cell lysates (right panel). 25% of input is shown for in vitro translated MAD and 10% of input for immunoprecipitated MAD (input). Assays were performed using 15 μM Tat-SID or Tat-SID^SCR peptide unless otherwise indicated. […] 293T cells were transfected with GAL4^uas×5-Tk-Luc reporter together with mammalian two-hybrid vectors expressing a fusion of Sin3B with GAL4 DNA binding domain (GAL4^DBD) and fusions of MAD and HDAC1 (columns 5-12 and 14-21, respectively) with VP16 activation domain (VP16^AD), as well as SID expression vectors, as indicated. […]
24 hours prior to transfection, 293T cells were plated at 50-60% confluence on 48-well plates. […] 48 hours post-transfection luciferase activity was measured using the Dual Luciferase assay system (Promega) on a Mithras LB940 plate reader (Berthold Technologies). […]

[4] = tested on: MDA-MB-231 cells; experiment: Three-dimensional morphogenesis assay in Matrigel; format: cell-based, human; settings: 5 μM peptide; Matrigel 3D culture; colonies counted after 10 days of treatment
Procedure: FIG. 3: A. Morphogenesis in 3D cultures in Matrigel. MDA-MB-231 and MMTV-Myc cells expressing SID or the double mutant were cultured in 3D-Matrigel for 14 days. […] B. Reversion of the invasive phenotype of the MDA-MB-231 cells in Matrigel 3D cultures. Upper panel indicates change in numbers of invasive versus non invasive colonies (as indicated in crosshatched and non-crosshatched bars, respectively) in the presence of different concentrations (as indicated) of cell penetrating SID or SID^SCR (scrambled control) peptide. The colonies were counted after 10 days of treatment with a medium containing fresh peptide changed every 24 hours. […] The reduction in invasive phenotype was quantified by counting 5 low magnification fields per well done in triplicates (upper panel). The p value was calculated using the unpaired Student t test.
3D cultures of MDA-MB-231 and MMTV-Myc cells stably transfected with pEGFP-SID, pEGFP-SID2Mut or the parent vector pEGFP-N3 were prepared as described by Debnath et al. (Debnath et al2003). Briefly, […] of growth factor depleted Matrigel (BD Biosciences) was applied on 8-well multichamber slides (BD Biosciences) and incubated at 37° C. for 30 minutes. Once the Matrigel solidified 5×10^3 cells were seeded on top of the gels in assay medium containing 2% Matrigel and 20 ng/ml […]. Growth medium was changed daily for 14 days. Once colony formation was evident, the SID or the scramble control peptide was added to the MDA-MB-231 parental cells in the medium starting at day 3. The morphology of the colonies was determined by confocal microscopy. Induction of apoptosis was determined by staining colonies with activated caspase-3 antibody (BD Transduction Labs) and cell polarization by staining with anti-GM130 antibody (BD Transduction Labs). Cell nuclei were visualized by DAPI (Sigma) staining. […]

Compound: CC/C(=C(\c1ccccc1)c1ccc(OCCN(C)C)cc1)c1ccccc1 [tamoxifen]
- prevention of E2 growth stimulation (MTT) ([1]; 2.5 μM tamoxifen plus E2): prevention of E2 growth stimulation

Compound: FLAG-tagged SID (6.6 kDa), expressed from pSID (peptide)
- relative luciferase activity, mammalian two-hybrid with GAL4 DBD-Sin3B and VP16AD-MAD (fold increase) [2]: 2

Compound: YGRKKRRQGGGEQRARRIMERLLEYNMVADL [scrambled control, reference compound]
- increase in luciferase activity compared to GAL4 DBD-Sin3B and VP16AD-MAD co-expression [3]: nor addition of scrambled control peptide led to an increase in luciferase activity
- decrease in number of colonies with invasive phenotype [4]: did not exert this effect

Compound: CC1=C(/C=C/C(C)=C/C=C/C(C)=C/C(=O)O)C(C)(C)CCC1 [ATRA, all-trans-retinoic acid]
- growth inhibition (MTT) ([1]; 1 uM): significant growth inhibition

Compound: VP16AD-MAD (VP16 activation domain as in-frame fusion with full-length MAD) (from UniProt Q05195 1-221)
- relative luciferase activity, mammalian two-hybrid (GAL4UASx5-Tk-Luc reporter, 293T cells) (fold decrease) [2]: 5

Compound: AM580
- growth inhibition (MTT) ([1]; 100 nM): significant growth inhibition

- relative luciferase activity, mammalian two-hybrid with GAL4 DBD-Sin3B and VP16AD-MAD (fold increase) [2]: 2
Compound: TetR-SID fusion (28.4 kDa), expressed from pTHE
